Experiments:
Assay in all cases: relative viability (nuclei count vs DMSO), 5 days (fraction); higher = more cells survive
201T = test system: 201T
Summary of the method: (§1)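 Five library-drug doses in √10 steps were combined with a fixed anchor-drug dose, or a single drug was given alone, by pin tool to lung cancer cell lines in 1536-well plates the day after seeding. Nuclei were stained and counted after 5 days. Relative viability is the nuclei count in treated wells over that in vehicle wells, taken as the median of duplicate plates.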

ABC-1 = test system: ABC-1
Summary of the method: as §1

BEN = test system: BEN
Summary of the method: as §1

CAL-12T = test system: CAL-12T
Summary of the method: as §1

EKVX = test system: EKVX
Summary of the method: as §1

HARA = test system: HARA
Summary of the method: as §1

HCC-366 = test system: HCC-366
Summary of the method: as §1

LK-2 = test system: LK-2
Summary of the method: as §1

LU99A = test system: LU99A
Summary of the method: as §1

NCI-H1437 = test system: NCI-H1437
Summary of the method: as §1

NCI-H1666 = test system: NCI-H1666
Summary of the method: as §1

NCI-H2170 = test system: NCI-H2170
Summary of the method: as §1

NCI-H3122 = test system: NCI-H3122
Summary of the method: as §1

NCI-H441 = test system: NCI-H441
Summary of the method: as §1

NCI-H727 = test system: NCI-H727
Summary of the method: as §1

NCI-H838 = test system: NCI-H838
Summary of the method: as §1

PC-14 = test system: PC-14
Summary of the method: as §1

SW 900 = test system: SW 900
Summary of the method: as §1

Compound `CC1(C)CCC(c2ccc(Cl)cc2)=C(CN2CCN(c3ccc(C(=O)NS(=O)(=O)c4ccc(N[C@H](CCN5CCOCC5)CSc5ccccc5)c(S(=O)(=O)C(F)(F)F)c4)cc3)CC2)C1` [Navitoclax] + NC(=O)Nc1cc(-c2cccc(F)c2)sc1C(=O)N[C@H]1CCCNC1 [AZD7762] (partner 0.2 µM) has a relative viability (201T; first compound 0.005 µM) of 0.656, a relative viability (201T; first compound 0.01581 µM) of 0.656 and a relative viability (201T; first compound 0.05 µM) of 0.41. It also gave a relative viability (201T; first compound 0.1581 µM) of 0.565, a relative viability (201T; first compound 0.5 µM) of 0.504 and a relative viability (ABC-1; first compound 0.005 µM) of 0.816. The relative viability (ABC-1; first compound 0.01581 µM) was 1.22, the relative viability (ABC-1; first compound 0.1581 µM) was 0.687 and the relative viability (ABC-1; first compound 0.5 µM) was 0.72. It also gave a relative viability (BEN; first compound 0.005 µM) of 0.705, a relative viability (BEN; first compound 0.01581 µM) of 0.667 and a relative viability (BEN; first compound 0.05 µM) of 0.647. For the same compound, the relative viability (BEN; first compound 0.1581 µM) was 0.725, the relative viability (BEN; first compound 0.5 µM) was 0.377 and the relative viability (CAL-12T; first compound 0.005 µM) was 0.626. The relative viability (CAL-12T; first compound 0.01581 µM) was 0.593, the relative viability (CAL-12T; first compound 0.05 µM) was 0.627 and the relative viability (CAL-12T; first compound 0.1581 µM) was 0.619. It also gave a relative viability (CAL-12T; first compound 0.5 µM) of 0.541, a relative viability (EKVX; first compound 0.005 µM) of 0.728 and a relative viability (EKVX; first compound 0.01581 µM) of 0.784. The relative viability (EKVX; first compound 0.05 µM) was 0.769, the relative viability (EKVX; first compound 0.1581 µM) was 0.729 and the relative viability (EKVX; first compound 0.5 µM) was 0.777. It also gave a relative viability (HARA; first compound 0.005 µM) of 0.385, a relative viability (HARA; first compound 0.01581 µM) of 0.444 and a relative viability (HARA; first compound 0.05 µM) of 0.212. It also gave a relative viability (HARA; first compound 0.1581 µM) of 0.228, a relative viability (HARA; first compound 0.5 µM) of 0.32 and a relative viability (HCC-366; first compound 0.005 µM) of 0.27. The relative viability (HCC-366; first compound 0.01581 µM) was 0.296, the relative viability (HCC-366; first compound 0.1581 µM) was 0.197 and the relative viability (HCC-366; first compound 0.5 µM) was 0.214. It also gave a relative viability (LK-2; first compound 0.005 µM) of 0.593, a relative viability (LK-2; first compound 0.01581 µM) of 0.567 and a relative viability (LK-2; first compound 0.05 µM) of 0.295. For the same compound, the relative viability (LK-2; first compound 0.1581 µM) was 0.358, the relative viability (LK-2; first compound 0.5 µM) was 0.351 and the relative viability (LU99A; first compound 0.005 µM) was 0.414. For the same compound, the relative viability (LU99A; first compound 0.01581 µM) was 0.466, the relative viability (LU99A; first compound 0.1581 µM) was 0.43 and the relative viability (LU99A; first compound 0.5 µM) was 0.439. For the same compound, the relative viability (NCI-H1437; first compound 0.005 µM) was 1.06, the relative viability (NCI-H1437; first compound 0.01581 µM) was 1.23 and the relative viability (NCI-H1437; first compound 0.05 µM) was 1.06. It also gave a relative viability (NCI-H1437; first compound 0.1581 µM) of 1.08, a relative viability (NCI-H1437; first compound 0.5 µM) of 1.05 and a relative viability (NCI-H1666; first compound 0.005 µM) of 0.934. The relative viability (NCI-H1666; first compound 0.01581 µM) was 0.883, the relative viability (NCI-H1666; first compound 0.05 µM) was 0.738 and the relative viability (NCI-H1666; first compound 0.1581 µM) was 0.861. It also gave a relative viability (NCI-H1666; first compound 0.5 µM) of 0.882, a relative viability (NCI-H2170; first compound 0.005 µM) of 0.883 and a relative viability (NCI-H2170; first compound 0.01581 µM) of 0.912. It also gave a relative viability (NCI-H2170; first compound 0.05 µM) of 0.845, a relative viability (NCI-H2170; first compound 0.1581 µM) of 0.798 and a relative viability (NCI-H2170; first compound 0.5 µM) of 0.623. The relative viability (NCI-H3122; first compound 0.005 µM) was 0.982, the relative viability (NCI-H3122; first compound 0.01581 µM) was 0.971 and the relative viability (NCI-H3122; first compound 0.05 µM) was 0.895. The relative viability (NCI-H3122; first compound 0.1581 µM) was 0.973, the relative viability (NCI-H3122; first compound 0.5 µM) was 0.985 and the relative viability (NCI-H441; first compound 0.005 µM) was 1.12. The relative viability (NCI-H441; first compound 0.01581 µM) was 1.19, the relative viability (NCI-H441; first compound 0.05 µM) was 1.22 and the relative viability (NCI-H441; first compound 0.1581 µM) was 1.04. For the same compound, the relative viability (NCI-H441; first compound 0.5 µM) was 1.24, the relative viability (NCI-H727; first compound 0.005 µM) was 0.656 and the relative viability (NCI-H727; first compound 0.01581 µM) was 0.595. It also gave a relative viability (NCI-H727; first compound 0.05 µM) of 0.539, a relative viability (NCI-H727; first compound 0.1581 µM) of 0.674 and a relative viability (NCI-H727; first compound 0.5 µM) of 0.594. It also gave a relative viability (NCI-H838; first compound 0.005 µM) of 0.971, a relative viability (NCI-H838; first compound 0.01581 µM) of 0.869 and a relative viability (NCI-H838; first compound 0.05 µM) of 0.937. For the same compound, the relative viability (NCI-H838; first compound 0.1581 µM) was 0.97, the relative viability (NCI-H838; first compound 0.5 µM) was 0.957 and the relative viability (PC-14; first compound 0.005 µM) was 0.326. For the same compound, the relative viability (PC-14; first compound 0.01581 µM) was 0.413, the relative viability (PC-14; first compound 0.05 µM) was 0.255 and the relative viability (PC-14; first compound 0.1581 µM) was 0.322. For the same compound, the relative viability (PC-14; first compound 0.5 µM) was 0.325, the relative viability (SW 900; first compound 0.005 µM) was 0.538 and the relative viability (SW 900; first compound 0.01581 µM) was 0.651. It also gave a relative viability (SW 900; first compound 0.1581 µM) of 0.573 and a relative viability (SW 900; first compound 0.5 µM) of 0.476.

From the supplement of paper PMC10307832
